Results from patent publication US20240382400A1 (The Procter & Gamble Company, priority 2023, published 2024).
Read-outs that look alike come from different tables or passages of the source.

Assays:
[1] = acidic pKa; cited from earlier work
[2] = pH 7.0 and 20° C.; cited from earlier work
[3] = cited from earlier work
PGE2 = PGE2 anti-inflammation assay in-vitro; type: cell-based; conditions: compared to niacinamide

O=C([O-])C=Cc1ccccc1.[Na+] [Sodium Cinnamate]
pKa [1]: 4.32

O=C(O)C=Cc1ccccc1 [cinnamic acid]
pKa [1]: 4.32

O=C(O)/C=C/c1ccc(O)cc1 [p-coumaric acid]
solubility in water [2]: approximately 345 mg/mL
conjugate base form ([3]; pH 3): approximately 13.4%
conjugate base form ([3]; pH 7): approximately 99.6%

Methyl niacinamide
efficacy in PGE2 anti-inflammation assay (PGE2): equivalent and/or improved efficacy to niacinamide
